Reference: patent US9682991B2, “Tricyclic compounds for use as kinase inhibitors” (FUNDACIÓN CENTRO NACIONAL DE INVESTIGACIONES ONCOLOGICAS …, priority 2009, dated 2017)

What was measured:
[1] = test system: NCI H1975 cells (non small cell lung carcinoma); assay: MTT in vitro cell proliferation / combination assay, NCI H1975; assay type: cell-based
Experimental: (§1) A combination index score is calculated by the Chou and Talalay method (CalcuSyn software, Biosoft). The strength of synergy is scored using the ranking system Chou and Talalay: CI less than 0.8 indicates synergy, CI between 0.8 and 1.2 indicates additivity and CI greater than 1.2 indicates antagonism.
(§2) The EC50 values of representative combinations were also calculated. The individually measured EC50 values of the chemotherapeutic agent and the example compounds are compared to the EC50 value of the combination. The cell lines are characterised by tumor type.
(§3) Blanco-Aparicio, Carmen; Collazo, Ana Maria Garcia; Oyarzabal, Julen; Leal, Juan F.; Albaran, Maria Isabel; Lima, Francisco Ramos; Pequeno, Belen; Ajenjo, Nuria; Becerra, Mercedes; Alfonso, Patricia; Reymundo, Maria Isabel; Palacios, Irene; Mateos, Genoveva; Quinones, Helena; Corrionero, Ana; Carnero, Amancio; Pevarello, Paolo; Lopez, Ana Rodriguez; Fominaya, Jesus; Pastor, Joaquin; Bischoff, James R. Cancer Letters (Shannon, Ireland) 2011, 300(2), 145-153.

[2] = test system: HTC116 cells (colon carcinoma); assay: MTT in vitro cell proliferation / combination assay, HTC116; assay type: cell-based
Experimental: as §1, §2

SKMel19 cells (melanoma) = assay: MTT in vitro cell proliferation / combination assay, SKMel19; assay type: cell-based
Experimental: as §1
(§4) The EC50 values of representative combinations were also calculated. The individually measured EC50 values of the chemotherapeutic agent and the example compounds are compared to the EC50 value of the combination. The cell lines are characterised by tumor type. […]

[3] = test system: MiaPaca-2 cells (pancreas); assay: MTT in vitro cell proliferation / combination assay, MiaPaca-2; assay type: cell-based
Experimental: (§5) Proliferation assays (MTT) were performed as described in: • “Chemical interrogation of FOXO3a nuclear translocation identifies potent and selective inhibitors of phosphoinositide 3-kinases”, W. Link, J. Oyarzabal, B. G. Serelde, M. I. Albarran, O. Rabal, A. Cebria, P. Alfonso, J. Fominaya, O. Renner, S. Peregrina, D. Soilan, P. A. Ceballos, A. I. Hernandez, M. Lorenzo, P. Pevarello, T. G. Granda, G. Kurz, A. Carnero, J. R. Bischoff, J. Biol. Chem. 284 (2009) 28392-28400. Combination Assay
as §1, §2
(§6) Combination assays were performed as described in: • “Pim 1 kinase inhibitor ETP-45299 suppresses cellular proliferation and synergizes with PI3K inhibition”. Blanco-Aparicio, Carmen; Collazo, Ana Maria Garcia; Oyarzabal, Julen; Leal, Juan F.; Albaran, Maria Isabel; Lima, Francisco Ramos; Pequeno, Belen; Ajenjo, Nuria; Becerra, Mercedes; Alfonso, Patricia; Reymundo, Maria Isabel; Palacios, Irene; Mateos, Genoveva; Quinones, Helena; Corrionero, Ana; Carnero, Amancio; Pevarello, Paolo; Lopez, Ana Rodriguez; Fominaya, Jesus; Pastor, Joaquin; Bischoff, James R. Cancer Letters (Shannon, Ireland) 2011, 300(2), 145-153.

[4] = test system: Jeko-1 cells (Mantle cell lymphoma); assay: MTT in vitro cell proliferation / combination assay, Jeko-1; assay type: cell-based
Experimental: as §1, §2, §3

DU145 cells (prostate) = assay: MTT in vitro cell proliferation / combination assay, DU145; assay type: cell-based
Experimental: as §5, §1, §2, §6

PIM-1 = PIM-1 (Homo sapiens (Human), UniProt P11309); assay: PIM-1 biochemical assay (ADP Hunter); conditions: read-out: PIM1 IC50; semi-quantitative
[5] = test system: A549 cells (lung adenocarcinoma); assay: MTT in vitro cell proliferation / combination assay, A549; assay type: cell-based
Experimental: as §1, §2, §3

[6] = test system: MV4:11 cells (leukemia, AML); assay: MTT in vitro cell proliferation / combination assay, MV4:11; assay type: cell-based
Experimental: as §1, §4

[7] = NCI H1975, combination with GDC-0941
[8] = HTC116, combination with PD-0325901
[9] = HTC116, combination with lapatinib
[10] = SKMel19, combination with GDC-0879
[11] = SKMel19, combination with GDC-0941
[12] = MiaPaca-2, combination with lapatinib
[13] = Jeko-1, combination with GDC-0941
[14] = Jeko-1, combination with lapatinib
[15] = DU145, combination with Taxotere
[16] = A549, combination with GDC-0941
[17] = MV4:11, combination with GDC-0941
[18] = MV4:11, combination with lapatinib

Chain of PIM-1 (P11309 whole entry): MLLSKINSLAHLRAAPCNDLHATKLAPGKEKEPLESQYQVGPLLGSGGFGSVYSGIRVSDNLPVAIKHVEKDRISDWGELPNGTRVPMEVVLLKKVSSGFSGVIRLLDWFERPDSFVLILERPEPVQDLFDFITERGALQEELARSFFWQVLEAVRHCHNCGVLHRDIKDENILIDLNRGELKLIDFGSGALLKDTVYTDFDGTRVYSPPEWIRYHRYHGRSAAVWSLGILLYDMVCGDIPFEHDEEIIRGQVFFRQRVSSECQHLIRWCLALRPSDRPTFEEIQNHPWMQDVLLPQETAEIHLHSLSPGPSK

With `CN1CCOc2c1c(N1CCC3(CC1)CC(N)C3)nn1c(-c3cccc(OC(F)(F)F)c3)nnc21` [Example 48, 7-[6-Methyl-3-(3-trifluoromethoxy-phenyl)-7,8-dihydro-6H-9-oxa-1,2,3a,4,6-pentaaza-cyclopenta[a]naphthalen-5-yl]-7-aza-spiro[3.5]non-2-ylamine] as the molecule, how does the EC50 ([1]; Homo sapiens, NCI H1975, example compound alone) read?
The EC50 was 5 µM.

What about the “Combination Index (CI)” value [1, 7] of the same molecule?
Its value is 0.038.

What about the Synergy [1, 7] of the same molecule?
Its Synergy is “++++ (CI<0.1)”.

What about the “Combination Index (CI)” value [2, 8] of the same molecule?
The value was 0.759.

What about the Synergy [2, 8] of the same molecule?
The Synergy was “+ (0.7<C1<1.2)”.

What about the “Combination Index (CI)” value [2, 9] of the same molecule?
The value was 0.608.

And the Synergy [2, 9]?
Its Synergy is “++ (0.3<C1<0.7)”.

And the EC50 ([2]; HTC116, example compound alone, read-out: Example EC50)?
The EC50 was 10 µM.

And the EC50 (SKMel19 cells (melanoma); Homo sapiens, SK-MEL19, SKMel19, example compound alone)?
Its EC50 is 3 µM.

What about the “Combination Index (CI)” value (SKMel19 cells (melanoma); [10]) of the same molecule?
Its value is 0.319.

And the Synergy (SKMel19 cells (melanoma); [10])?
Its Synergy is “++ (0.3<C1<0.7)”.

And the “Combination Index (CI)” value (SKMel19 cells (melanoma); [11])?
The value was 0.571.

What about the Synergy (SKMel19 cells (melanoma); [11]) of the same molecule?
The Synergy was “++ (0.3<C1<0.7)”.

What about the EC50 (SKMel19 cells (melanoma); SKMel19, example compound alone) of the same molecule?
The EC50 was 4 µM.

And the EC50 ([3]; Homo sapiens, MIA PaCa-2, MiaPaca-2, example compound alone, read-out: Example EC50)?
The EC50 was 5 µM.

And the “Combination Index (CI)” value [3, 12]?
Its value is 0.57.

And the Synergy [3, 12]?
The Synergy was “++ (0.3<C1<0.7)”.

What about the EC50 ([4]; Homo sapiens, Jeko-1, example compound alone, read-out: Example EC50) of the same molecule?
The EC50 was 2.5 µM.

What about the “Combination Index (CI)” value [4, 13] of the same molecule?
Its value is 0.718.

And the Synergy [4, 13]?
Its Synergy is “+ (0.7<C1<1.2)”.

And the “Combination Index (CI)” value [4, 14]?
Its value is 0.244.

And the Synergy [4, 14]?
Its Synergy is “+++ (0.1<CI<0.3)”.

What about the “Combination Index (CI)” value (DU145 cells (prostate); [15]) of the same molecule?
The value was 0.704.

And the Synergy (DU145 cells (prostate); [15])?
The Synergy was “+ (0.7<C1<1.2)”.

What about the EC50 (DU145 cells (prostate); Homo sapiens, DU-145, DU145, example compound alone, read-out: Example EC50) of the same molecule?
Its EC50 is 15 µM.

And the IC50 (PIM-1)?
Its IC50 is under 0.1 µM.

And the “Combination Index (CI)” value [5, 16]?
Its value is 0.12.

And the Synergy [5, 16]?
Its Synergy is “+++ (0.1<CI<0.3)”.

And the EC50 ([5]; Homo sapiens, A549, example compound alone)?
Its EC50 is 6 µM.

And the EC50 ([6]; Homo sapiens, MV4:11, example compound alone)?
The EC50 was 1 µM.

What about the “Combination Index (CI)” value [6, 17] of the same molecule?
Its value is 0.3.

What about the Synergy [6, 17] of the same molecule?
The Synergy was “+++ (0.1<CI<0.3)”.

And the “Combination Index (CI)” value [6, 18]?
Its value is 0.548.

What about the Synergy [6, 18] of the same molecule?
Its Synergy is “++ (0.3<C1<0.7)”.
